Patent US8324390B2, “Tetrazole-substituted anthranilamides as pesticides” (Bayer CropScience AG, priority 2008, dated 2012)
Read-outs that look alike come from different tables or passages of the source.

Legend:
[1] = log P determination by HPLC (EEC Directive 79/831 Annex V.A8); assay type: physicochemical
Protocol: The measurements were carried out using an Agilent 1100 LC system with a 50*4.6 Zorbax Eclipse C18 1.8 μm column (oven temperature 55° C., flow rate 2.0 ml/min).
The following mobile phases were used:
Mobile phase A: acetonitrile+1000 μl of formic acid/l
Mobile phase B: Millipore water+900 μl of formic acid/l

[2] = test system: caterpillars of the armyworm (Spodoptera frugiperda); assay: Spodoptera frugiperda test (SPODFR spray treatment); assay type: in vivo; conditions: Spodoptera frugiperda, foliar, read-out: effect in % (caterpillars killed)
Description: (§1) Solvent: 78.0 parts by weight of acetone

[3] = test system: green peach aphid (Myzus persicae); assay: Myzus test (MYZUPE spray treatment); assay type: in vivo; conditions: Myzus persicae, foliar, read-out: effect in % (aphids killed)
Description: Solvent: 78 parts by weight of acetone
as §1

[4] = test system: larvae of the mustard beetle (Phaedon cochleariae); assay: Phaedon test (PHAECO spray treatment); conditions: Phaedon cochleariae, in Brassica rapa, foliar, read-out: effect in % (beetle larvae killed)
[5] = reversed-phase HPLC, Zorbax Eclipse C18 column, determined by HPLC according to EEC Directive 79/831 Annex V.A8, read-out: log P
[6] = application rate 100 g/ha, maize leaf discs
[7] = application rate 100 g/ha, Chinese cabbage leaf discs
[8] = reversed-phase HPLC, Zorbax Eclipse C18 column, by HPLC according to EEC Directive 79/831 Annex V.A8, read-out: log P

SMILES	chromatographic logP [1, 5]	pest or weed control at 100 g/ha [2, 6]	pest or weed control at 100 g/ha [3, 7]	pest or weed control at 100 g/ha [4]	chromatographic logP ([1]; log P)	pest or weed control at 100 g/ha ([2]; in Zea mays)	pest or weed control at 100 g/ha ([3]; in Brassica rapa)	chromatographic logP [1, 8]
Cc1cc(C#N)cc(C(=O)NC(C)(C)C)c1NC(=O)c1cc(Cn2nnc(C(F)(F)F)n2)nn1-c1c(F)cccc1Cl [Example 528]	3.88	≥ 80%	≥ 80%	≥ 80%				
COCCNC(=O)c1cc(C#N)cc(C)c1NC(=O)c1cc(Cn2nnc(C(F)(F)F)n2)nn1-c1ncccc1Cl [Example 92]				≥ 80%	2.73	≥ 80%	≥ 80%	
CNC(=O)c1cc(C#N)cc(C)c1NC(=O)c1cc(Cn2nnnc2C(F)(F)C(F)(F)F)nn1-c1ncccc1Br [Example 516]	2.72	≥ 80%	≥ 80%	≥ 80%				
CNC(=O)c1cc(I)cc(C)c1NC(=O)c1cc(Cn2nnnc2C(F)(F)F)nn1-c1ncccc1Cl [Example 172]				≥ 80%	2.86	≥ 80%	≥ 80%	
Cc1cc(C#N)cc(C(=O)NC(C)(C)C)c1NC(=O)c1cc(Cn2nnc(C3CC3)n2)nn1-c1ncccc1Cl [Example 105]				≥ 80%	2.93	≥ 80%	≥ 80%	
Cc1cc(I)cc(C(=O)NCC#N)c1NC(=O)c1cc(Cn2nnc(C(F)(F)F)n2)nn1-c1ncccc1Br [Example 412]	3.16	≥ 80%	≥ 80%	≥ 80%				
CNC(=O)c1cc(Cl)cc(C)c1NC(=O)c1cc(Cn2nnc(C(F)(F)F)n2)nn1-c1ccccc1Br [Example 345]		≥ 80%	≥ 80%	≥ 80%				3.5
Cc1cc(Br)cc(C(=O)NC(C)C)c1NC(=O)c1cc(Cn2nnnc2C(F)(F)F)nn1-c1ncccc1C(F)(F)F [Example 459]	3.29	≥ 80%	≥ 80%	≥ 80%				
CNC(=O)c1cc(F)cc(C)c1NC(=O)c1cc(Cn2nnnc2C(F)(F)F)nn1-c1ncccc1Cl [Example 167]				≥ 80%	2.32	≥ 80%	≥ 80%	
Cc1cc(Cl)cc(C(=O)NC(C)C)c1NC(=O)c1cc(Cn2nnnc2C(F)(F)C(F)(F)F)nn1-c1ncccc1Br [Example 513]	3.54	≥ 80%	≥ 80%	≥ 80%				
Cc1cc(C#N)cc(C(=O)NC(C)C)c1NC(=O)c1cc(Cn2nnc(C(F)F)n2)nn1-c1ncccc1Cl [Example 266]				≥ 80%	2.58	≥ 80%	≥ 80%	
CSC[C@H](C)NC(=O)c1cc(Cl)cc(Cl)c1NC(=O)c1cc(Cn2nnc(C(F)(F)F)n2)nn1-c1ncccc1Cl [Example 64]				≥ 80%	3.62	≥ 80%	≥ 80%	
CC(C)NC(=O)c1cc(Cl)cc(Cl)c1NC(=O)c1cc(Cn2nnc(C(F)F)n2)nn1-c1ncccc1Cl [Example 286]				≥ 80%	2.91	≥ 80%	≥ 80%	
Cc1cc(C#N)cc(C(=O)NC(C)(C)C)c1NC(=O)c1cc(Cn2nnc(C(F)(F)F)n2)nn1-c1ncccc1F [Example 407]	3.2	≥ 80%	≥ 80%	≥ 80%				
Cc1cc(Br)cc(C(=O)NC(C)(C)C)c1NC(=O)c1cc(Cn2nnc(C(F)(F)F)n2)nn1-c1ncccc1Cl [Example 114]				≥ 80%	4	≥ 80%	≥ 80%	
CNC(=O)c1cc(C#N)cc(C)c1NC(=O)c1cc(Cn2nnnc2C(F)F)nn1-c1ncccc1Cl [Example 472]				≥ 80%	1.97	≥ 80%	≥ 80%	
Cc1cc(Br)cc(C(=O)NC(C)C)c1NC(=O)c1cc(Cn2nnnc2C(F)(F)F)nn1-c1ncccc1Cl [Example 171]				≥ 80%	3.22	≥ 80%	≥ 80%	

SMILES	chromatographic logP [1, 5]	pest or weed control at 100 g/ha [2, 6]	pest or weed control at 100 g/ha [3, 7]	pest or weed control at 100 g/ha [4]	chromatographic logP ([1]; log P)	pest or weed control at 100 g/ha ([2]; in Zea mays)	pest or weed control at 100 g/ha ([3]; in Brassica rapa)	chromatographic logP [1, 8]
Cc1cc(Br)cc(C(N)=O)c1NC(=O)c1cc(Cn2nnc(C(F)(F)F)n2)nn1-c1ncccc1Br [Example 353]		≥ 80%	≥ 80%	≥ 80%				2.82
CNC(=O)c1cc(I)cc(C)c1NC(=O)c1cc(Cn2nnc(C(F)(F)F)n2)nn1-c1ncccc1Br [Example 410]	3.26	≥ 80%	≥ 80%	≥ 80%				
C#CC(C)NC(=O)c1cc(C#N)cc(C)c1NC(=O)c1cc(Cn2nnc(C(F)(F)F)n2)nn1-c1ncccc1Cl (stereo not shown) [Example 432]				≥ 80%	2.97	≥ 80%	≥ 80%	
Cc1cc(Cl)cc(C(=O)NC(C)C2CC2)c1NC(=O)c1cc(Cn2nnc(C(F)(F)F)n2)nn1-c1ncccc1Cl (stereo not shown) [Example 30]				≥ 80%	3.79	≥ 80%	≥ 80%	
Cc1cc(C#N)cc(C(=O)NC(C)C)c1NC(=O)c1cc(Cn2nnc(C(F)(F)C(F)(F)F)n2)nn1-c1ncccc1Br [Example 423]	3.46	≥ 80%	≥ 80%	≥ 80%				
CC(C)(C)NC(=O)c1cc(Cl)cc(Cl)c1NC(=O)c1cc(Cn2nnnc2C(F)(F)F)nn1-c1ncccc1Cl [Example 177]				≥ 80%	3.43	≥ 80%	≥ 80%	
CNC(=O)c1cc(I)cc(C)c1NC(=O)c1cc(Cn2nnnc2C(F)(F)F)nn1-c1ncccc1C(F)(F)F [Example 452]	3.07	≥ 80%	≥ 80%	≥ 80%				
Cc1cc(C#N)cc(C(=O)NC2CCC2)c1NC(=O)c1cc(Cn2nnc(C(F)F)n2)nn1-c1ncccc1Cl [Example 270]				≥ 80%	2.7	≥ 80%	≥ 80%	
Cc1cc(C#N)cc(C(=O)NC(C)(C)C)c1NC(=O)c1cc(Cn2nnnc2C(F)(F)C(F)(F)F)nn1-c1ncccc1Cl [Example 446]				≥ 80%	3.47	≥ 80%	≥ 80%	
Cc1cc(C#N)cc(C(=O)NC2CC2)c1NC(=O)c1cc(Cn2nnnc2C(F)(F)C(F)(F)F)nn1-c1ncccc1Cl [Example 445]				≥ 80%	2.95	≥ 80%	≥ 80%	
Cc1cc(C#N)cc(C(=O)NCC(F)F)c1NC(=O)c1cc(Cn2nnc(C(F)(F)F)n2)nn1-c1ncccc1Cl [Example 91]				≥ 80%	2.91	≥ 80%	≥ 80%	
CNC(=O)c1cc(Cl)cc(C)c1NC(=O)c1cc(C(C)n2nnnc2C(F)(F)F)nn1-c1ncccc1Cl (stereo not shown) [Example 510]				≥ 80%	2.86	≥ 80%	≥ 80%	
Cc1cc(C#N)cc(C(=O)NC(C)(C)C)c1NC(=O)c1cc(Cn2nnc(C(F)(F)F)n2)nn1-c1ncccc1Br [Example 332]		≥ 80%	≥ 80%	≥ 80%				3.43
Cc1cc(C#N)cc(C(=O)NCC2CC2)c1NC(=O)c1cc(Cn2nnc(C(F)F)n2)nn1-c1ncccc1Cl [Example 269]				≥ 80%	2.66	≥ 80%	≥ 80%	
CCNC(=O)c1cc(C#N)cc(C)c1NC(=O)c1cc(Cn2nnc(C(F)(F)F)n2)nn1-c1ccccc1Cl [Example 342]		≥ 80%	≥ 80%	≥ 80%				3.36
CNC(=O)c1cc(Cl)cc(Cl)c1NC(=O)c1cc(Cn2nnc(C(F)(F)F)n2)nn1-c1ncccc1Cl [Example 54]				≥ 80%	2.93	≥ 80%	≥ 80%	
Cc1cc(C#N)cc(C(=O)NC(C)C2CC2)c1NC(=O)c1cc(Cn2nnc(C(F)F)n2)nn1-c1ncccc1Cl (stereo not shown) [Example 263]				≥ 80%	2.86	≥ 80%	≥ 80%	
